Laboratory results as given in patent US6833372B2, “Non-peptide GnRH agents, Pharmaceutical compositions, and methods for their use” (Pfizer, Inc., priority 2002, dated 2004).
Converted amounts (≈) assume the structure as drawn. Like-named read-outs stand apart in the source and are kept apart here. Each block holds one compound with its values, some of them ahead of it.

Columns and labels:
human GnRH receptors = biological target: T1, human GnRH receptors (Homo sapiens, UniProt P30968); assay: Radioligand binding: inhibition of 125I-GnRH-A binding to human GnRH receptor membranes; details: HEK 293 cell membranes
T1 construct: expressed in transfected cells; host or cells: HEK 293 cells, stably transfected; membranes
T1 sequence (P30968 1-328): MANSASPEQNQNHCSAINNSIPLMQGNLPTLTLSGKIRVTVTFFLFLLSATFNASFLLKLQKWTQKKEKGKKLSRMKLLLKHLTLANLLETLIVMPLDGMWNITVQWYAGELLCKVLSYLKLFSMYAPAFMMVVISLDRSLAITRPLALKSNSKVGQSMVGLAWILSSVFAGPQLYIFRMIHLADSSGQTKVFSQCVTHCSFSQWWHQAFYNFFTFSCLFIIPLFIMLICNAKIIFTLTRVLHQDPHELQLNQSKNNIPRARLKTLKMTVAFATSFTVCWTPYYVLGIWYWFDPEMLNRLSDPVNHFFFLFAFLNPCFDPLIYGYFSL
Outline: (§1)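 Membranes from rat pituitaries, or HEK 293 cells stably expressing mouse or human receptor, incubated 1 hour at room temperature with ~0.04-0.06 nM radioligand (HEPES pH 7.4, EDTA, MgCl2, BSA) and competitor at 0.1-10,000 nM. Bound ligand collected by GF/C filtration and counted; Ki derived from IC50 by Cheng-Prusoff.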

[1] = In vitro metabolism: disappearance of parent compound in human liver microsomes; assay type: in vitro ADME; details: 5 uM compound, 0.5 mg/ml protein, 2 mM NADPH, 30 minutes 37° C.
Outline: (§2)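 Microsomes from human, rat (male, female), dog and monkey liver incubated with 5 uM compound, 0.5 mg/ml protein and 2 mM NADPH in 50 mM K phosphate, pH 7.4, for 30 min at 37° C. Reaction stopped with acetonitrile; parent compound remaining measured by LC-MS.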

[2] = In vitro metabolism: disappearance of parent compound in dog liver microsomes; assay type: in vitro ADME; details: 5 uM compound, 30 minutes 37° C.
Outline: as §2

rat GnRH receptor = biological target: T2, rat GnRH receptor (Rattus norvegicus, UniProt P30969); assay: Radioligand binding: inhibition of 125I-GnRH-A binding to rat GnRH receptor (rat pituitary membranes); details: read-out: Ki (nM), Inhibition Binding of 125I-GnRH-A to GnRH Receptors
T2 construct: or rat pituitaries (Pel Freez Biologicals, Rogers, Ark.) were homogenized; tissue Pel Freez Biologicals; host or cells: rat pituitaries (membrane preparation)
T2 sequence (P30969 1-327): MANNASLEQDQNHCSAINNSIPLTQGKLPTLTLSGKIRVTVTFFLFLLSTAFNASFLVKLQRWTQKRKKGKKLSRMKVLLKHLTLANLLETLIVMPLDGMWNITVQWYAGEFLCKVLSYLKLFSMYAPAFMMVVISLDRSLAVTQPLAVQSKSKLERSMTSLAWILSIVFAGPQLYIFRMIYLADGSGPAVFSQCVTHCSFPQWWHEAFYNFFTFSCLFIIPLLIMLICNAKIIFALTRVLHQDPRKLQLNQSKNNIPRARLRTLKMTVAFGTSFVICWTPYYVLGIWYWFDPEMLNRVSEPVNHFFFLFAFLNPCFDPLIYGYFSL
Outline: as §1

[3] = Solubility at pH2 and pH6; assay type: physicochemical
[4] = In vitro metabolism: disappearance of parent compound in monkey liver microsomes; assay type: in vitro ADME; details: 5 uM compound, 30 minutes 37° C.
Outline: as §2

Rat plasma % remain = assay type: in vitro ADME
[5] = In vitro metabolism: disappearance of parent compound in rat liver microsomes (male, female); assay type: in vitro ADME; details: 5 uM compound, 30 minutes 37° C.
Outline: as §2

mouse GnRH receptors = biological target: T3, mouse GnRH receptors (Mus musculus, UniProt Q01776); assay: Radioligand binding: inhibition of 125I-GnRH-A binding to mouse GnRH receptor membranes; details: HEK 293 cell membranes
T3 construct: expressed in transfected cells; host or cells: HEK 293 cells, stably transfected; membranes
T3 sequence (Q01776 1-327): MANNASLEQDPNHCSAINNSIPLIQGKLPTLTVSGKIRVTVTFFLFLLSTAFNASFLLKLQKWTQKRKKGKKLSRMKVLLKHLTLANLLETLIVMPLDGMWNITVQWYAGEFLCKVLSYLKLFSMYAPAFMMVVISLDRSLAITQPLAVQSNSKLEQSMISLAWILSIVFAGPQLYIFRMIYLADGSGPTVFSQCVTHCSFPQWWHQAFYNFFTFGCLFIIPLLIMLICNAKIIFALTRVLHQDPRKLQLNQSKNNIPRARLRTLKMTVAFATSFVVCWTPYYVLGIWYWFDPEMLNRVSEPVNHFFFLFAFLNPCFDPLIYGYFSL
Experimental: HEK 293 cells stably transfected with mouse or human GnRH receptors as described above were grown in Dulbecco's high-glucose, modified Eagle's medium (DMEM) supplemented with 0.2% G418, 10% fetal bovine serum (FBS) and 100 U/mL penicillin/streptomycin. GH3 cells stably transfected with the rat GnRH receptor (GGH3) were provided by Dr. William Chin (Harvard Medical School, Boston, Mass.). These cells have been extensively characterized previously (Kaiser et al., 1997). The cells were grown in low glucose DMEM containing: 100U/mL penicillin/streptomycin, 0.6% G418 and 10% heat-inactivated FBS.
HEK 293 cells containing mouse or human receptors, or rat pituitaries (Pel Freez Biologicals, Rogers, Ark.) were homogenized in buffer A containing: 50 mM Tris (pH 7.4), 0.32 M sucrose, 2 mM EGTA, 1 mM PMSF, 5 μg/ml aprotinen, 5 μg/ml Pepstatin A, and 1 μg/ml leupeptin. Homogenized cells were centrifuged at 4° C. at 20,000×g for 25 minutes, re-suspended in buffer A and re-centrifuged at 4° C. at 20,000×g for an additional 25 minutes. Total membrane protein was determined with a BCA kit (Pierce, Rockford, Ill.). Membranes were stored at −70° C. at a final membrane protein concentration of approximately 5 mg/ml.
The radioiodinated agonist analog of GnRH, [des-Gly^10,D-Ala^6]GnRH ethylamide (^125I-GnRH-A), was used as the radioligand. […] The reaction mixture was vortexed and incubated for 1 minute at room temperature. After one minute, the mixture was vortexed and allowed to incubate for an additional minute. 2 ml of 0.5 M acetic acid/1% BSA was added to the reaction tube and the mixture was added to a C18 Sep-Pak cartridge. The cartridge was washed with subsequent washes of 5 ml H2O and 5 ml 0.5 M acetic acid and then eluted with 5×1 ml of 60% CH3CN/40% 0.5 M acetic acid. The eluate was diluted with 3× volume of HPLC buffer A (0.1% TFA in H2O) and loaded onto a C18 column. The iodinated product was eluted over 20-25 min with a gradient of 25-100% CH3CN containing 0.1% TFA. The radioactive fractions (750 μl/fraction) were collected into clean polypropylene tubes containing 100 μl of 10% BSA. Fractions were assessed for biological activity by radioligand binding. Specific activity of the radioligand was approximately 2200 Ci/mmol.
Membranes were diluted to 0.01-0.5 mg/ml (depending upon the species of receptor) with assay buffer containing 50 mM HEPES (pH 7.4), 1 mM EDTA, 2.5 mM MgCl2, and 0.1% BSA. Membranes (diluted to utilize similar receptor numbers between assays) were incubated with approximately 0.04-0.06 nM ^125I-GnRH-A in the presence or absence of competing agents (0.1-10,000 nM) in a total volume of 200 μl in 96-well polypropylene plates for 1 hour at room temperature. Assays were stopped by rapid filtration onto 96-well GF/C filters soaked in 0.1% polyethylenimine (PEI) utilizing a Packard 96-well cell harvester. Filters were washed three times with ice-cold PBS (50 mM NaPO4, 0.9% NaCl, 2 mM MgCl2, and 0.02% NaN3, pH 7.4). 35 μl of scintillation cocktail was added to each filter well and filters were counted on a Packard Topcount. Control dose-response curves were generated to GnRH (0.1 nM-100 nM) in each competition binding experiment. Ki values were calculated from IC50 values according to Cheng et al., Biochemical Pharmacol. 22: 3099-3108, 1973. [formula]

[6] = biological target: T4, GGH3 cells (GH3 cells stably transfected with the rat GnRH receptor) (Rattus norvegicus, UniProt P30969); assay: Effect of compounds on 125I-GnRH-A binding to GGH3 cells (competition radioligand binding, whole cells); details: on ice 2 hr
T4 construct: host or cells: GH3 cells stably transfected (GGH3), whole cells
T4 sequence (P30969 1-327): T2 sequence (P30969 1-327)
Experimental: Cell Culture. GGH3 cells (Dr. William Chin, Harvard Medical School, Boston, Mass.) are grown in low glucose Dulbecco's modified Eagle's medium (DMEM) containing 100 U/mL penicillin/streptomycin, 0.6 g/L G418 and 10% heat-inactivated FBS.
The reaction mixture is vortexed and incubated for 1 min at room temperature. Two; ml of 0.5 M acetic acid is added to the reaction tube and the mixture is added to a C18 Sep-Pak cartridge: The cartridge is washed with subsequent washes of 5 ml H2O and 5 ml 0.5M acetic acid and then eluted with 5×1 ml of 60% CH3CN/40% 0.5M acetic acid. The eluate is diluted with 3× volume of HPLC buffer A (0.1% TFA in H2O) and loaded onto a C18 column. The iodinated product is eluted over 20-25 min with a gradient of 25-100% CH3CN containing 0.1% TFA. The radioactive fractions (750 μl/fraction) are collected into clean polypropylene tubes containing 100 μl of 10% BSA. Fractions are assessed for biological activity by radioligand binding.
Reactions are performed on ice for 2 hr and stopped by the addition of 2 ml of ice-cold PBS wash buffer (50 mM NaPO4, 0.9% NaCl, 2 mM MgCl2, and 0.02% NaN3, pH 7.4) and rapid filtration onto GF/C filters presoaked with 0.05% polyethylenimine utilizing a Brandel cell harvester. Filters are counted on a gamma counter. […]

Compound: COc1nc(NCCN2CCCC2)nc(OC)c1NC(=O)c1ccc(Cc2cc3c(cc2C)C(C)(C)OC3(C)C)o1 [Example D23, N-{4,6-Dimethoxy-2-[(2-pyrrolidin-1-ylethyl)amino]-pyrimidin-5-yl}-5-[(1,1,3,3,6-pentamethyl-1,3-dihydro-2-benzofuran-5-yl)methyl]-2-furamide Acetate]
Ki (human GnRH receptors): 1.6 nM
Ki (rat GnRH receptor): 0.92 nM
Ki (mouse GnRH receptors): 1.7 nM

Compound: pGlu-His-Trp-Ser-Tyr-Gly-Leu-Arg-Pro-Gly-NH2 [GnRH]
ability to inhibit 125I-GnRH-A binding to GGH3 cells [6]: blocked

The remaining lines, values ahead:

Ki (human GnRH receptors): 1 nM
Human % rem. 30′ [1]: 54%
Dog % rem. 30′ [2]: 2%
Ki (rat GnRH receptor): 0.79 nM
solubility ([3]; pH 2, simulated gastric fluid, pH2, read-out: Solubility μg/ml pH2): 1.2 µg/mL (≈ 2.44 µM)
solubility ([3]; pH 6, aqueous buffer, pH6, read-out: Solubility μg/ml pH6): 0.4 µg/mL (≈ 0.812 µM)
Monkey % rem. [4]: 0%
Rat plasma % remain (Rat plasma % remain): 100%
Fem. Rat (FR) % rem. 30′ ([5]; female rat liver microsomes): 94%
Male Rat (MR) % rem. 30′ ([5]; male rat liver microsomes): 1%
Ki (mouse GnRH receptors): 0.75 nM
Compound: CNc1nc(OC)c(NC(=O)c2ccc(Cc3cc4c(cc3C)C(C)(C)CCC4(C)C)o2)c(OC)n1 [Example B1, 5-(3,5,5,8,8-Pentamethyl-5,6,7,8-tetrahydro-naphthalen-2-ylmethyl)-furan-2-carboxylic Acid (4,6-dimethoxy-2-methylamino-pyrimidin-5-yl)-amide]

Ki (human GnRH receptors): 4.7 nM
Ki (rat GnRH receptor): 14 nM
Ki (mouse GnRH receptors): 5.3 nM
Compound: COc1nc(N2CCOCC2)nc(OC)c1NC(=O)c1ccc(Cc2cc3c(cc2C)C(C)(C)CCC3(C)C)o1 [Example B3, 5-(3,5,5,8,8-Pentamethyl-5,6,7,8-tetrahydro-naphthalen-2-ylmethyl)-furan-2-carboxylic Acid (4,6-dimethoxy-2-morpholin-4-yl-pyrimidin-5-yl)-amide]

ability to inhibit 125I-GnRH-A binding to GGH3 cells [6]: blocked
Compound: Ac-D-2-Nal-p-chloro-D-Phe-β-(3-pyridyl)-D-Ala-Ser-Lys(nicotinoyl)-D-Lys(nicotinoyl)-Leu-Lys(isopropyl)-Pro-D-Ala-NH2 [Antide]
